Patent publication US20080161289A1, “Fused Thiazole Derivatives Having Affinity for the Histamine H3 Receptor” (Glaxo Group Limited, priority 2005, published 2008)

Molecular target: T1, histamine H3 receptors (Homo sapiens, UniProt Q9Y5N1)
T1 construct: expressed in transfected cells; host or cells: CHO K1 cells carrying pSwitch, transfected with pGeneH3, induced with mifepristone; clone 3H3; membrane preparation
Experiment: Histamine H3 functional antagonist assay ([35S]-GTPγS SPA on membranes from H3 cells)
Format: biochemical
Conditions: hydrochloride salts tested; H3 functional antagonist assay using membrane prepared from cultured H3 cells; averages of a number of experiments; read-out: functional pKi (fpKi) (converted)
Source text: A membrane preparation containing histamine H3 receptors may be prepared in accordance with the following procedures:
(i) Generation of Histamine H3 Cell Line
DNA encoding the human histamine H3 gene (Huvar, A. et al. (1999) Mol. Pharmacol. 55(6), 1101-1107) was cloned into a holding vector, pCDNA3.1 TOPO (InVitrogen) and its cDNA was isolated from this vector by restriction digestion of plasmid DNA with the enzymes BamHI and Not-1 and ligated into the inducible expression vector pGene (InVitrogen) digested with the same enzymes. The GeneSwitch™ system (a system where in transgene expression is switched off in the absence of an inducer and switched on in the presence of an inducer) was performed as described in U.S. Pat. Nos. 5,364,791; 5,874,534; and 5,935,934. Ligated DNA was transformed into competent DH5α E. coli host bacterial cells and plated onto Luria Broth (LB) agar containing Zeocin™ (an antibiotic which allows the selection of cells expressing the sh ble gene which is present on pGene and pSwitch) at 50 μg ml^−1. Colonies containing the re-ligated plasmid were identified by restriction analysis. DNA for transfection into mammalian cells was prepared from 250 ml cultures of the host bacterium containing the pGeneH3 plasmid and isolated using a DNA preparation kit (Qiagen Midi-Prep) as per manufacturers guidelines (Qiagen).
CHO K1 cells previously transfected with the pSwitch regulatory plasmid (InVitrogen) were seeded at 2×10e6 cells per T75 flask in Complete Medium, containing Hams F12 (GIBCOBRL, Life Technologies) medium supplemented with 10% v/v dialysed foetal bovine serum, L-glutamine, and hygromycin (100 μg ml^−1), 24 hours prior to use. Plasmid DNA was transfected into the cells using Lipofectamine plus according to the manufacturers guidelines (InVitrogen). 48 hours post transfection cells were placed into complete medium supplemented with 500 μg ml^−1 Zeocin™.
10-14 days post selection 10 nM Mifepristone (InVitrogen), was added to the culture medium to induce the expression of the receptor. 18 hours post induction cells were detached from the flask using ethylenediamine tetra-acetic acid (EDTA; 1:5000; InVitrogen), following several washes with phosphate buffered saline pH 7.4 and resuspended in Sorting Medium containing Minimum Essential Medium (MEM), without phenol red, and supplemented with Earles salts and 3% Foetal Clone II (Hyclone). Approximately 1×10e7 cells were examined for receptor expression by staining with a rabbit polyclonal antibody, 4a, raised against the N-terminal domain of the histamine H3 receptor, incubated on ice for 60 minutes, followed by two washes in sorting medium. Receptor bound antibody was detected by incubation of the cells for 60 minutes on ice with a goat anti rabbit antibody, conjugated with Alexa 488 fluorescence marker (Molecular Probes). Following two further washes with Sorting Medium, cells were filtered through a 50 μm Filcon™ (BD Biosciences) and then analysed on a FACS Vantage SE Flow Cytometer fitted with an Automatic Cell Deposition Unit. Control cells were non-induced cells treated in a similar manner. Positively stained cells were sorted as single cells into 96-well plates, containing Complete Medium containing 500 μg ml^−1 Zeocin™ and allowed to expand before reanalysis for receptor expression via antibody and ligand binding studies. One clone, 3H3, was selected for membrane preparation.
(ii) Membrane Preparation from Cultured Cells
All steps of the protocol are carried out at 4° C. and with pre-cooled reagents. The cell pellet is resuspended in 10 volumes of homogenisation buffer (50 mM N-2-hydroxyethylpiperazine-N′-2-ethanesulfonic acid (HEPES), 1 mM ethylenediamine tetra-acetic acid (EDTA), pH 7.4 with KOH, supplemented with 10e-6M leupeptin (acetyl-leucyl-leucyl-arginal; Sigma L2884), 25 μg/ml bacitracin (Sigma B0125), 1 mM phenylmethylsulfonyl fluoride (PMSF) and 2×10e-6M pepstain A (Sigma)). […]

T1 sequence (Q9Y5N1 whole entry): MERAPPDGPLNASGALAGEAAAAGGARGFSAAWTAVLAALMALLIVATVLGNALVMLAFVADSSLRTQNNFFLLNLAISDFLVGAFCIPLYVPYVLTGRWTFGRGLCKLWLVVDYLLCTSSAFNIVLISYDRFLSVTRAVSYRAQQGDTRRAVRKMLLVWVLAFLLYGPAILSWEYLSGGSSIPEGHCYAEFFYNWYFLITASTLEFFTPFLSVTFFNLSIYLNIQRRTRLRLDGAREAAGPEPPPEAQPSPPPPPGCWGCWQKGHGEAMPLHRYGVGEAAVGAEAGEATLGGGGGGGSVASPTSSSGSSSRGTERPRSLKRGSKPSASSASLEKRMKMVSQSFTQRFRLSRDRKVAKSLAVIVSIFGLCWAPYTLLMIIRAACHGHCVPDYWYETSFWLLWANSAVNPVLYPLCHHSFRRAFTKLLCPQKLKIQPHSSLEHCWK

Row | Compound | Ki [nM]
1 | N#Cc1ccc(N2CCC(c3nc4c(s3)CCN(C3CCC3)CC4)C2)cn1 (racemic) [Example E35, (±)-5-[3-(6-Cyclobutyl-5,6,7,8-tetrahydro-4H-[1,3]thiazolo[4,5-d]azepin-2-yl)-1-pyrrolidinyl]-2-pyridinecarbonitrile] | < 1.26
2 | Cc1ccc(N2CCC(c3nc4c(s3)CCN(C3CCC3)CC4)C2)cn1 (racemic) [Example E38, (±)-6-Cyclobutyl-2-[1-(6-methyl-3-pyridinyl)-3-pyrrolidinyl]-5,6,7,8-tetrahydro-4H-[1,3]thiazolo[4,5-d]azepine] | < 1.26
3 | Cc1cccc(N2CCC(c3nc4c(s3)CCN(C3CCC3)CC4)C2)n1 (racemic) [Example E114, (±)-6-Cyclobutyl-2-[1-(6-methyl-2-pyridinyl)-3-pyrrolidinyl]-5,6,7,8-tetrahydro-4H-[1,3]thiazolo[4,5-d]azepine] | < 0.316
4 | N#Cc1ccc(N2CCC(c3nc4c(s3)CCN(C3CCC3)CC4)C2)cn1 (single isomer, unassigned; (+)) [Example E37, (+)-5-[3-(6-Cyclobutyl-5,6,7,8-tetrahydro-4H-[1,3]thiazolo[4,5-d]azepin-2-yl)-1-pyrrolidinyl]-2-pyridinecarbonitrile] | < 1.26
5 | N#Cc1ccc(N2CCC(c3nc4c(s3)CCN(C3CCC3)CC4)C2)cn1 (single isomer, unassigned; (-)) [Example E36, (−)-5-[3-(6-Cyclobutyl-5,6,7,8-tetrahydro-4H-[1,3]thiazolo[4,5-d]azepin-2-yl)-1-pyrrolidinyl]-2-pyridinecarbonitrile] | < 0.316
6 | FC(F)(F)c1ccc(-c2nc3c(s2)CCN(C2CCC2)CC3)cc1 [Example E1, 6-Cyclobutyl-2-[4-(trifluoromethyl)phenyl]-5,6,7,8-tetrahydro-4H-[1,3]thiazolo[4,5-d]azepine] | < 31.6
7 | O=C1CCCN1c1ccc(-c2nc3c(s2)CCN(C2CCC2)CC3)cc1 [Example E3, 1-[4-(6-cyclobutyl-5,6,7,8-tetrahydro-4H-[1,3]thiazolo[4,5-d]azepin-2-yl)phenyl]-2-pyrrolidinone] | < 0.316
8 | c1cc(-c2nc3c(s2)CCN(C2CCC2)CC3)ccc1-c1csnn1 [Example E5, 6-Cyclobutyl-2-[4-(1,2,3-thiadiazol-4-yl)phenyl]-5,6,7,8-tetrahydro-4H-[1,3]thiazolo[4,5-d]azepine] | < 1.26
9 | N#Cc1ccc(N2CCC(c3nc4c(s3)CCN(C3CCC3)CC4)CC2)cn1 [Example E20, 5-[4-(6-Cyclobutyl-5,6,7,8-tetrahydro-4H-[1,3]thiazolo[4,5-d]azepin-2-yl)-1-piperidinyl]-2-pyridinecarbonitrile] | < 0.316
10 | NC(=O)c1ccc(N2CCC(c3nc4c(s3)CCN(C3CCC3)CC4)CC2)cn1 [Example E22, 5-[4-(6-Cyclobutyl-5,6,7,8-tetrahydro-4H-[1,3]thiazolo[4,5-d]azepin-2-yl)-1-piperidinyl]-2-pyridinecarboxamide] | < 0.316
11 | CN(C)C(=O)c1ccc(N2CCC(c3nc4c(s3)CCN(C3CCC3)CC4)CC2)cn1 [Example E24, 5-[4-(6-Cyclobutyl-5,6,7,8-tetrahydro-4H-[1,3]thiazolo[4,5-d]azepin-2-yl)-1-piperidinyl]-N,N-dimethyl-2-pyridinecarboxamide] | < 1.26
12 | CN1CCN(c2ccc(-c3nc4c(s3)CCN(C3CCC3)CC4)cc2)C1=O [Example E26, 1-[4-(6-Cyclobutyl-5,6,7,8-tetrahydro-4H-[1,3]thiazolo[4,5-d]azepin-2-yl)phenyl]-3-methyl-2-imidazolidinone] | < 0.316
13 | O=C1NCCN1c1ccc(-c2nc3c(s2)CCN(C2CCC2)CC3)cc1 [Example E27, 1-[4-(6-Cyclobutyl-5,6,7,8-tetrahydro-4H-[1,3]thiazolo[4,5-d]azepin-2-yl)phenyl]-2-imidazolidinone] | < 1.26

Next, values leading:

Row | Ki [nM] | Compound
14 | < 1.26 | Cc1ccc(C(=O)N2CCC(c3nc4c(s3)CCN(C3CCC3)CC4)CC2)cn1 [Example E8, 6-Cyclobutyl-2-{1-[(6-methyl-3-pyridinyl)carbonyl]-4-piperidinyl}-5,6,7,8-tetrahydro-4H-[1,3]thiazolo[4,5-d]azepine]
15 | < 31.6 | O=C(c1ccc(C(F)(F)F)nc1)N1CCC(c2nc3c(s2)CCN(C2CCC2)CC3)CC1 [Example E10, 6-Cyclobutyl-2-(1-{[6-(trifluoromethyl)-3-pyridinyl]carbonyl}-4-piperidinyl)-5,6,7,8-tetrahydro-4H-[1,3]thiazolo[4,5-d]azepine]
16 | < 0.316 | Cc1cccc(C(=O)N2CCC(c3nc4c(s3)CCN(C3CCC3)CC4)CC2)n1 [Example E11, 6-Cyclobutyl-2-{1-[(6-methyl-2-pyridinyl)carbonyl]-4-piperidinyl}-5,6,7,8-tetrahydro-4H-[1,3]thiazolo[4,5-d]azepine]
17 | < 1.26 | Cc1cnc(C(=O)N2CCC(c3nc4c(s3)CCN(C3CCC3)CC4)CC2)cn1 [Example E12, 6-Cyclobutyl-2-{1-[(5-methyl-2-pyrazinyl)carbonyl]-4-piperidinyl}-5,6,7,8-tetrahydro-4H-[1,3]thiazolo[4,5-d]azepine]
18 | < 0.316 | Cc1cncc(C(=O)N2CCC(c3nc4c(s3)CCN(C3CCC3)CC4)CC2)c1 [Example E13, 6-Cyclobutyl-2-{1-[(5-methyl-3-pyridinyl)carbonyl]-4-piperidinyl}-5,6,7,8-tetrahydro-4H-[1,3]thiazolo[4,5-d]azepine]
19 | < 1.26 | Cc1ccc(C(=O)N2CCC(c3nc4c(s3)CCN(C3CCC3)CC4)CC2)cc1 [Example E14, 6-Cyclobutyl-2-{1-[(4-methylphenyl)carbonyl]-4-piperidinyl}-5,6,7,8-tetrahydro-4H-[1,3]thiazolo[4,5-d]azepine]
20 | < 1.26 | Cc1cc(C(=O)N2CCC(c3nc4c(s3)CCN(C3CCC3)CC4)CC2)no1 [Example E15, 6-Cyclobutyl-2-{1-[(5-methyl-3-isoxazolyl)carbonyl]-4-piperidinyl}-5,6,7,8-tetrahydro-4H-[1,3]thiazolo[4,5-d]azepine]
21 | < 1.26 | O=C(c1csnn1)N1CCC(c2nc3c(s2)CCN(C2CCC2)CC3)CC1 [Example E16, 6-Cyclobutyl-2-[1-(1,2,3-thiadiazol-4-ylcarbonyl)-4-piperidinyl]-5,6,7,8-tetrahydro-4H-[1,3]thiazolo[4,5-d]azepine]
22 | < 1.26 | Cn1ccc(C(=O)N2CCC(c3nc4c(s3)CCN(C3CCC3)CC4)CC2)n1 [Example E17, 6-Cyclobutyl-2-{1-[(1-methyl-1H-pyrazol-3-yl)carbonyl]-4-piperidinyl}-5,6,7,8-tetrahydro-4H-[1,3]thiazolo[4,5-d]azepine]
23 | < 1.26 | Cc1cc(C(=O)N2CCC(c3nc4c(s3)CCN(C3CCC3)CC4)CC2)on1 [Example E18, 6-Cyclobutyl-2-{1-[(3-methyl-5-isoxazolyl)carbonyl]-4-piperidinyl}-5,6,7,8-tetrahydro-4H-[1,3]thiazolo[4,5-d]azepine]
24 | < 1.26 | Cc1ccc(N2CCC(c3nc4c(s3)CCN(C3CCC3)CC4)CC2)cn1 [Example E19, 6-Cyclobutyl-2-[1-(6-methyl-3-pyridinyl)-4-piperidinyl]-5,6,7,8-tetrahydro-4H-[1,3]thiazolo[4,5-d]azepine]
25 | < 1.26 | Cc1ncccc1C(=O)N1CCC(c2nc3c(s2)CCN(C2CCC2)CC3)CC1 [Example E25, 6-Cyclobutyl-2-{1-[(2-methyl-3-pyridinyl)carbonyl]-4-piperidinyl}-5,6,7,8-tetrahydro-4H-[1,3]thiazolo[4,5-d]azepine]
